The text below walks through data of patent publication US20240246964A1 (Arbutus Biopharma Corporation, priority 2021, published 2024).

Each structure is given as a SMILES string.

The target of this assay is human PD-L1 (Homo sapiens (Human), UniProt Q9NZQ7). Put plainly: T cell activation luciferase reporter cell culture system (T Cell Activation Assay). In kind it is cell-based. Conditions: luciferase reporter assay; PD-L1 aAPC/CHO-K1 cells with PD-1 effector Jurkat T cells. In general terms: Reporter assays use an easily measured gene product as a stand-in for the process of interest.
Sequence of human PD-L1 (Q9NZQ7 19-290): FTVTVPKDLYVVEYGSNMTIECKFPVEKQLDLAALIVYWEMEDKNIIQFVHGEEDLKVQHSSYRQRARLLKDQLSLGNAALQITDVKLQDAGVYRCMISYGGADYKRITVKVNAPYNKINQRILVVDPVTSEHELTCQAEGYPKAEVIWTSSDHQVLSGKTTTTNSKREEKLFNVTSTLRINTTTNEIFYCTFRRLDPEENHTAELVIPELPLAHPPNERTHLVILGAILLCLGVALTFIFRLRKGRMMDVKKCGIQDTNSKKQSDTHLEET
`COc1cc(-c2nccc(-c3cccc(NC(=O)c4ccc(C(=O)O)cn4)c3Cl)c2Cl)ccc1CNC[C@@H]1CCC(=O)N1` [Example 752, (S)-6-((2-Chloro-3-(3-chloro-2-(3-methoxy-4-((((5-oxopyrrolidin-2-yl)methyl)amino)methyl)phenyl)pyridin-4-yl)phenyl)carbamoyl)nicotinic acid]: the EC50 is 1030 nM. In other words, the single-digit micromolar range.
As for `COc1nc(-c2cccc(-c3ccnc(-c4cnc5c(CN6CCC(NC(C)=O)CC6)cn(C)c5c4)c3Cl)c2Cl)ccc1CNC[C@@H]1CCC(=O)N1` [Example 377, (S)—N-(1-((6-(3-chloro-4-(2-chloro-3-(6-methoxy-5-((((5-oxopyrrolidin-2-yl)methyl)amino)methyl)pyridin-2-yl)phenyl)pyridin-2-yl)-1-methyl-1H-pyrrolo[3,2-b]pyridin-3-yl)methyl)piperidin-4-yl)acetamide], the figure is 405 nM; as for `COc1nc(-c2cncc(-c3cccc(NC(=O)c4cn(C)c(=O)n(C)c4=O)c3Cl)c2Cl)ccc1CN1CC2(CNC(=O)C2)C1` [Compound 722, N-(2-Chloro-3-(4′-chloro-6-methoxy-5-((7-oxo-2,6-diazaspiro[3.4]octan-2-yl)methyl)-[2,3′-bipyridin]-5′-yl)phenyl)-1,3-dimethyl-2,4-dioxo-1,2,3,4-tetrahydropyrimidine-5-carboxamide], 818 nM.
As for `COc1nc(-c2cccc(-c3ccnc(-c4ccc5c(c4)N(C)CCN(C[C@@H]4CCC(=O)N4)C5)c3Cl)c2Cl)ccc1CNC[C@@H]1CCC(=O)N1` [Cmpd 19, (S)-5-((((6-(2-chloro-3-(3-chloro-2-(1-methyl-4-(((S)-5-oxopyrrolidin-2-yl)methyl)-2,3,4,5-tetrahydro-1H-benzo[e][1,4]diazepin-8-yl)pyridin-4-yl)phenyl)-2-methoxypyridin-3-yl)methyl)amino)methyl)pyrrolidin-2-one], the figure is 61.4 nM; as for `COc1nc(-c2ccnc(-c3cccc4c3CC[C@@H]4Nc3nc(OC)c(CNC[C@@H]4CCC(=O)N4)cc3C(F)(F)F)c2Cl)ccc1CNC1CCOCC1` [Example 666, (S)-5-((((6-(((S)-4-(3′-Chloro-6-methoxy-5-(((tetrahydro-2H-pyran-4-yl)amino)methyl)-[2,4′-bipyridin]-2′-yl)-2,3-dihydro-1H-inden-1-yl)amino)-2-methoxy-5-(trifluoromethyl)pyridin-3-yl)methyl)amino)methyl)pyrrolidin-2-one], 114 nM.
`COc1cc(-c2nccc(-c3cccc(-c4ccc(CNCCCF)c(OC)n4)c3Cl)c2Cl)ccc1CNCCCF` [Example 534, N-((6-(2-Chloro-3-(3-chloro-2-(4-(((3-fluoropropyl)amino)methyl)-3-methoxyphenyl)pyridin-4-yl)phenyl)-2-methoxypyridin-3-yl)methyl)-3-fluoropropan-1-amine] yielded an EC50 of 56.7 nM.
Take `COc1cc(-c2nccc(-c3cccc(-c4ccc(CN5CC6(C5)CN(C(C)=O)C6)c(OC)n4)c3C#N)c2Cl)ccc1CN1CC2(C1)CN(C(C)=O)C2` [Example 636, 2-(2-(4-((6-Acetyl-2,6-diazaspiro[3.3]heptan-2-yl)methyl)-3-methoxyphenyl)-3-chloropyridin-4-yl)-6-(5-((6-acetyl-2,6-diazaspiro[3.3]heptan-2-yl)methyl)-6-methoxypyridin-2-yl)benzonitrile]: the EC50 came to 1270 nM.
As for `COc1cc(-c2nccc(-c3cccc(-c4ccc(CNC5CCN(C(C)=O)CC5)c(OC)n4)c3Cl)c2Cl)ccc1CNC[C@H]1CNC(=O)C1` [Example 407, (S)-4-(((4-(4-(3-(5-(((1-Acetylpiperidin-4-yl)amino)methyl)-6-methoxypyridin-2-yl)-2-chlorophenyl)-3-chloropyridin-2-yl)-2-methoxybenzyl)amino)methyl)pyrrolidin-2-one], the figure is 20 nM; as for `COc1nc(-c2cccc(-c3ccnc(-c4ccc(CN5CC6(C5)CN(C(C)=O)C6)c(OC(F)F)c4)c3Cl)c2Cl)ccc1CNC1CCN(C(C)=O)CC1` [Example 664, 1-(4-(((6-(3-(2-(4-((6-Acetyl-2,6-diazaspiro[3.3]heptan-2-yl)methyl)-3-(difluoromethoxy)phenyl)-3-chloropyridin-4-yl)-2-chlorophenyl)-2-methoxypyridin-3-yl)methyl)amino)piperidin-1-yl)ethan-1-one], 32.4 nM; as for `COc1cc(-c2nccc(-c3cccc(-c4ccc(CNC[C@@H]5CCC(=O)N5)c(OC)n4)c3Cl)c2Cl)cc2c1CN(C[C@@H]1CCC(=O)N1)CC2` [Cmpd 6, (S)-5-((((6-(2-chloro-3-(3-chloro-2-(8-methoxy-2-(((S)-5-oxopyrrolidin-2-yl)methyl)-1,2,3,4-tetrahydroisoquinolin-6-yl)pyridin-4-yl)phenyl)-2-methoxypyridin-3-yl)methyl)amino)methyl)pyrrolidin-2-one], 22.3 nM.
Next, `COc1nc(-c2cccc(-c3ccnc(-c4cnn(CC5CNC5)c4)c3Cl)c2Cl)ccc1CNC[C@@H]1CCC(=O)N1` [Cmpd 120, (S)-5-((((6-(3-(2-(1-(azetidin-3-ylmethyl)-1H-pyrazol-4-yl)-3-chloropyridin-4-yl)-2-chlorophenyl)-2-methoxypyridin-3-yl)methyl)amino)methyl)pyrrolidin-2-one]: 972 nM.
Next, `COc1cc(-c2nccc(-c3cccc(-c4ccc(CN(C)C5CCN(C(C)=O)CC5)c(OC)n4)c3Cl)c2Cl)ccc1CNC1CCOCC1` [Example 469, 1-(4-(((6-(2-chloro-3-(3-chloro-2-(3-methoxy-4-(((tetrahydro-2H-pyran-4-yl)amino)methyl)phenyl)pyridin-4-yl)phenyl)-2-methoxypyridin-3-yl)methyl)(methyl)amino)piperidin-1-yl)ethan-1-one]: 79.3 nM; `COc1cc(-c2nccc(-c3cccc(-c4ccc(CNCC5(O)CC5)c(OC)n4)c3Cl)c2Cl)ccc1CNCC1(O)CC1` [Example 504, 1-((((6-(2-Chloro-3-(3-chloro-2-(4-((((1-hydroxycyclopropyl)methyl)amino)methyl)-3-methoxyphenyl)pyridin-4-yl)phenyl)-2-methoxypyridin-3-yl)methyl)amino)methyl)cyclopropan-1-ol]: 36.4 nM.
Compound `COc1nc(-c2cccc(-c3ccnc(-c4cc(OC)c5nc(CNCCO)nn5c4)c3Cl)c2Cl)ccc1CNC1CCN(C(C)=O)CC1` [Example 654, 1-(4-(((6-(2-Chloro-3-(3-chloro-2-(2-(((2-hydroxyethyl)amino)methyl)-8-methoxy-[1,2,4]triazolo[1,5-a]pyridin-6-yl)pyridin-4-yl)phenyl)-2-methoxypyridin-3-yl)methyl)amino)piperidin-1-yl)ethan-1-one] came in with a half-maximal effective concentration (EC50) of 82.8 nM. Against the preceding compound, the EC50 is about 2.3-fold higher.
Next, `COc1cc(-c2nccc(-c3cccc(-c4ccc(CN5CC6(CCN(C(C)=O)C6)C5)c(OC)n4)c3Cl)c2Cl)ccc1CN1CCC(O)CC1` [Example 692, 1-(2-((6-(2-Chloro-3-(3-chloro-2-(4-((4-hydroxypiperidin-1-yl)methyl)-3-methoxyphenyl)pyridin-4-yl)phenyl)-2-methoxypyridin-3-yl)methyl)-2,6-diazaspiro[3.4]octan-6-yl)ethan-1-one]: 43.5 nM; `COc1cc(-c2nccc(-c3cccc(-c4ccc(CNC[C@@H]5CCC(=O)N5)c(OC)n4)c3Cl)c2Cl)ccc1CN1CCC(NC(C)=O)CC1` [Example 403, (S)—N-(1-(4-(3-Chloro-4-(2-chloro-3-(6-methoxy-5-((((5-oxopyrrolidin-2-yl)methyl)amino)methyl)pyridin-2-yl)phenyl)pyridin-2-yl)-2-methoxybenzyl)piperidin-4-yl)acetamide]: 18.9 nM; `COc1cc(-c2nccc(-c3cccc(-c4ccc(CNC[C@H]5CCC(=O)N5)c(OC)n4)c3Cl)c2Cl)ccc1CNC[C@H]1CCC(=O)N1` [Example 354, (R)-5-((((6-(2-Chloro-3-(3-chloro-2-(3-methoxy-4-(((((R)-5-oxopyrrolidin-2-yl)methyl)amino)methyl)phenyl)pyridin-4-yl)phenyl)-2-methoxypyridin-3-yl)methyl)amino)methyl)pyrrolidin-2-one]: 26.3 nM.
As for `COc1cc(-c2nccc(-c3cccc(-c4ccc(CNC5CCN(C(C)=O)CC5)c(OC)n4)c3Cl)c2Cl)ccc1CN1CC2(CC(O)C2)C1` [Example 361, 1-(4-(((6-(2-Chloro-3-(3-chloro-2-(4-((6-hydroxy-2-azaspiro[3.3]heptan-2-yl)methyl)-3-methoxyphenyl)pyridin-4-yl)phenyl)-2-methoxypyridin-3-yl)methyl)amino)piperidin-1-yl)ethan-1-one], the figure is 40.5 nM; as for `COc1cc(-c2nccc(-c3cccc(-c4ccc(CNCCO)c(OC)n4)c3Cl)c2Cl)cc2c1CN(CCCF)CC2` [Cmpd 84, 2-(((6-(2-chloro-3-(3-chloro-2-(2-(3-fluoropropyl)-8-methoxy-1,2,3,4-tetrahydroisoquinolin-6-yl)pyridin-4-yl)phenyl)-2-methoxypyridin-3-yl)methyl)amino)ethan-1-ol], 71 nM; as for `COc1cc(-c2nccc(-c3cccc(-c4ccc(CNC5CCN(C(C)=O)CC5)c(OC)n4)c3Cl)c2Cl)ccc1CN1CCC[C@@H](O)C1` [Example 489, (R)-1-(4-(((6-(2-Chloro-3-(3-chloro-2-(4-((3-hydroxypiperidin-1-yl)methyl)-3-methoxyphenyl)pyridin-4-yl)phenyl)-2-methoxypyridin-3-yl)methyl)amino)piperidin-1-yl)ethan-1-one], 28.5 nM.
`COc1nc(-c2cccc(-c3ccnc(-c4ccc5c(c4)N(C)CCNC5)c3Cl)c2Cl)ccc1CNC[C@@H]1CCC(=O)N1` [Cmpd 3, (S)-5-((((6-(2-chloro-3-(3-chloro-2-(1-methyl-2,3,4,5-tetrahydro-1H-benzo[e][1,4]diazepin-8-yl)pyridin-4-yl)phenyl)-2-methoxypyridin-3-yl)methyl)amino)methyl)pyrrolidin-2-one] came in with an EC50 of 42.9 nM.
As for `COc1cc(-c2nccc(-c3cccc(-c4ccc(CNC5CCN(C(=O)C6CC6)CC5)c(OC)n4)c3Cl)c2Cl)ccc1CNC1CCN(C(=O)C2CC2)CC1` [Example 345, (4-(((6-(2-Chloro-3-(3-chloro-2-(4-(((1-(cyclopropanecarbonyl)piperidin-4-yl)amino)methyl)-3-methoxyphenyl)pyridin-4-yl)phenyl)-2-methoxypyridin-3-yl)methyl)amino)piperidin-1-yl)(cyclopropyl)methanone], the figure is 32.3 nM.

One may read the EC50 as the concentration at which the effect is half-maximal. Read a high EC50 as a need for much substance.
